Series [1] has as its system E. coli ∆tolC JW5503-1. The experiment in a line: MIC, E. coli ∆tolC. The series is classed as cell-based. As to conditions: Escherichia coli, read-out: MIC tolC. Here is the method: (§1) The inoculum used for all the experiments is derived from a single seed lot that is maintained as glycerol stocks at −80 °C and are sub cultured on LB plate for isolated colonies. Single colony of each strain is grown in M9 medium. All test compound stocks and dilutions are prepared in DMSO. Serial two-fold dilutions of compounds are prepared separately, with the concentrations ranging from 2 mg/mL to 0.015 mg/mL. To 150 µl (3–7 × 10^5 CFU/ml) of bacterial culture in 96 well microtitre plates, 3 μL compound from each of the dilutions is added to respective wells to obtain final concentrations ranging from 40 µg/mL to 0.3 µg/mL of the test compounds. Media control, culture control and appropriate reference drug controls are included. […] Growth is monitored by checking absorbance at 600 nm (A600). […] The samples from MIC and above concentrations are plated for MBC (Minimum Bactericidal Concentration). The samples are diluted 1:10 and plated on LB agar plates. […] The killing kinetics is determined by enumerating survivors at various time points following compound exposure. E. coli cells (~10^7 CFU/ml; A600 of 0.1) are treated with various concentrations (40 µg/mL to 0.3 µg/mL) of compounds in a 96-well microtitre plate. At various time intervals (0 to 8 h), 30 μl volumes of treated cultures are serially diluted and plated on LB agar plates. […] Data is expressed as the log10 CFU for each drug treatment.

The subject of series [2] is wild-type E. coli CGSC#7636 (BW25113). The experiment in a line: MIC, wild-type E. coli. The series is classed as cell-based. As to conditions: for MIC: Escherichia coli, read-out: MIC WT. Here is the method: as §1
The test system of series [3] is E. coli ∆nfsA. As to the kind of experiment: microbe, parasite or virus in culture. As to conditions: Escherichia coli, read-out: MIC ∆nfsA. The series is classed as cell-based. On the procedure: (§2) To assess the biological relevance of the interacting protein and establish the link between nitroreductases to the antibacterial activity of NTC compounds, single (ΔnfsA or ΔnfsB) and double knockouts (ΔnfsA & ΔnfsB) of nitroreductases were generated by phage transduction using strains from the Keio collection.
as §1

Series [4] has as its system E. coli ∆nfsA + ∆nfsB. The experiment in a line: microbe, parasite or virus in culture. The conditions noted are these: for MIC: Escherichia coli, read-out: MIC ∆nfsA + ∆nfsB; for antibacterial activity in double knockout (in words): ΔnfsA and ΔnfsB double knockout strain. Format: cell-based. Here is the method:
as §2, §1

In series [5] the test system is Salmonella typhimurium clinical strain. As to the kind of experiment: MIC, Salmonella typhimurium. Format: cell-based. On the procedure:
as §1, with “plate.” for “plate. At various time intervals (0 to 8 h), 30 μl volumes of treated cultures are serially diluted and plated on LB agar plates.”

The nature of series [6]: Oral pharmacokinetics. The series is classed as in vivo, BALB/c mice. Also noted: Ke: unit not given here. The conditions noted are these: for AUC / AUC(0-inf) / AUC(0-t) / Cmax / Tmax / half-life / bioavailability: BALB/c, mouse, plasma; for AUC: po; for AUC(0-inf) / AUC(0-t) / Cmax / Tmax / half-life / Ke / ext AUC: mice. On the procedure: The test substances were formulated in 10% DMSO in 0.25% carboxy methyl cellulose. […] Then 3.6 ml of 0.25% of CMC was added in aliquots to the DMSO solution, with constant grinding using a pestle until a uniform suspension was obtained. […]
At 5 min, 15 min, 30 min, 1 h, 2 h, 4 h, 8 h, and 24 h time points, and prior to sampling, mice were anaesthetized with isoflurane. From each mouse, two blood samples were drawn; the 1st was non-terminal (0.1 ml) and the 2nd terminal, by retro-orbital plexus puncture using heparanised capillary tubes. Blood was collected in 2 ml Eppendorf tubes containing 0.01 ml of 10% K2EDTA as anticoagulant, mixed gently and placed in ice before centrifugation. Blood was centrifuged at 10,000 rpm for 5 min, and plasma was harvested and stored at −80 °C until bioanalysis.
Ultrafast liquid chromatography mass spectrometric method was used for the estimation of test compounds in pre-clinical study samples. The analysis was performed using an API 4000 LC-MS/MS system. The interface used with the API 4000 LC-MS/MS was a Turbo Ion spray. The positive ions were measured in MRM mode. The analyte was extracted using a solid-phase extraction procedure. The data was acquired by and integrated using the Applied Biosystems “Analyst” version 1.5.2 software. Linear regression, with 1/x^2 weighting was used for calibration.
Non-compartmental (NCA) PK analysis was performed using MS Excel. The linear trapezoidal rule was used to estimate the AUC. The NCA analysis was performed using the following equations (3) on mean concentration time data: AUC=Σ[(Ci1+Ci2)/2]∗[ti2−ti1] AUMC=Σ[((Ci1∗ti1)+(Ci2∗ti2))/2)∗(ti2−ti1)] AUCt−∞=Clast/Kel AUC0−∞=AUC0−t+AUCt−∞ AUCextrapolated(%)=[AUCt−∞/AUC0−∞]∗100 where, Ci1 and Ci2 are the concentrations at times ti1 and ti2, respectively. Kel=ln(Cx/Cy)/(ty−tx) where, Kel is the first order elimination rate constant, ln is the natural logarithm, Cx and Cy are the first and last concentrations, respectively on the linear portion of the terminal phase of the concentration-time profile, and ty and tx are the corresponding time points. T1/2=0.693/Kel Cl=Doseiv/AUC0−∞ Vss=(AUMC0−∞/AUC0−∞)∗(Doseiv/AUC0−∞) Cmax and tmax were visually estimated from the mean oral conc-time profile F(%)=(AUCpo/AUCiv)∗(Doseiv/Dosepo)∗100

In series [7] the test system is ATCC25922. The experiment in a line: MIC on E. coli ATCC25922. Format: cell-based. As to conditions: strain ATCC25922. On the procedure: as §1
Series [8] can be described thus: Cytotoxicity, MTS assay. The series is classed as cell-based. The conditions noted are these: human, A549 cells. On the procedure: Cytotoxicity of the compounds was evaluated using MTS ((3-(4,5-dimethylthiazol-2-yl)-5-(3-carboxymethoxyphenyl)-2-(4-sulfophenyl)-2H-tetrazolium)) assay. A-549 cells were seeded in a 96 well plate at a density if 1.5 × 10^4 cells/well (100 μL). The cells were cultured in a CO2 incubator at 37 °C. A ten point concentration curve was set up starting from 5 nM to 100 μM with 3 fold dilution along with positive, negative and blank controls. The final concentration of DMSO was maintained at 1% throughout the plate. The compound treatment was carried out for 24 hrs. After incubation MTS reagent was added followed by 30 min incubation. The absorbance was measured at 490 nm. Data analysis was done using GraphPad Prism 6.0.

Molecules are shown by their SMILES. Converted amounts (≈) assume the structure as drawn. Read-outs that look alike come from different tables or passages of the source.

These results are taken from paper PMC5940854, “Nitrothiophene carboxamides, a novel narrow spectrum antibacterial series: Mechanism of action and Efficacy” (Scientific Reports, 2018).

Regarding `Cc1sc(NC(=O)c2ccc([N+](=O)[O-])s2)nc1-c1ccccc1` [compound 7, N-(5-Methyl-4-phenylthiazol-2-yl)-5-nitrothiophene-2-carboxamide], the MIC was 1.25 µg/mL (≈ 3.62 µM) in series [1]; above 40 µg/mL in series [2] (BW25113, E. coli WT BW25113); above 40 µg/mL in series [3]; above 40 µg/mL in series [4]. In addition, in series [2] (E. coli WT BW25113), the “MIC WT” value is above 40 µg/mL.

As to `O=C(Nc1nc(-c2ccc(F)cc2F)cs1)c1ccc([N+](=O)[O-])s1` [compound 12, N-(4-(2,4-difluorophenyl)thiazol-2-yl)-5-nitrothiophene-2-carboxamide], in series [1], the MIC was 0.15 µg/mL (≈ 0.408 µM). In series [5], the MIC Salmonella typhimurium was determined as 2.5 µg/mL (≈ 6.81 µM). Also, the AUC (commonly concentration integrated over time) in series [6] (10 mg/kg) was 760 ng·h/mL. In series [6] (single oral dose 10 mg/kg), the AUC(0-inf) (commonly total exposure, with the tail of the curve extrapolated) was found to be 760 ng·h/mL; the AUC(0-t) (as a rule, exposure summed from dosing to a finite time, without extrapolation to infinity) was 750 ng·h/mL; the concentration peaked (Cmax) at 650 ng/mL; the Tmax (usually the time from dosing to the highest level) amounted to 15 min. Moreover, in series [6] (single oral dose 10 mg/kg), the half-life (commonly the time needed for the level to fall by half in the phase considered) was 61.8 min, the Ke amounted to 0.67 and the “ext AUC” value was 0.5%. Also, in series [6] (oral 10 mg/kg vs IV 2 mg/kg), the bioavailability (commonly dose-corrected exposure relative to a reference, in per cent) worked out at 26.7%. This compound gave an MIC in series [7] of 1 µg/mL (≈ 2.72 µM). Also, the MIC in series [2] (BW25113, E. coli WT BW25113) came out at 0.6 µg/mL (≈ 1.63 µM). Besides, the MIC in series [2] (BW25113, Table S11) amounted to 0.6 µg/mL (≈ 1.63 µM). The MIC in series [3] amounted to 0.6 µg/mL (≈ 1.63 µM). For the same compound, in series [4], the MIC was above 40 µg/mL and the “antibacterial activity in double knockout (in words)” value (“antibacterial activity” for short) is “completely inactive”. Besides, 16.9 µg/mL (≈ 46 µM) corresponded to half-maximal inhibition in series [8] (IC50 at 24 h).

Turning to `O=C(Nc1nc(-c2ccc(F)cc2)cs1)c1ccc([N+](=O)[O-])s1` [compound 15, N-(4-(4-Fluorophenyl)thiazol-2-yl)-5-nitrothiophene-2-carboxamide], the MIC in series [1] was 0.6 µg/mL (≈ 1.72 µM); in series [7], 1.25 µg/mL (≈ 3.58 µM); in series [2] (BW25113, E. coli WT BW25113) it was 1.25 µg/mL (≈ 3.58 µM); in series [2] (BW25113, Table S11), 1.25 µg/mL (≈ 3.58 µM); in series [3], 0.6 µg/mL (≈ 1.72 µM); in series [4], above 40 µg/mL. Further, the AUC in series [6] (10 mg/kg) came out at 750 ng·h/mL; in series [6] (100 mg/kg), 10300 ng·h/mL. This compound returned an AUC(0-inf) in series [6] (single oral dose 10 mg/kg) of 760 ng·h/mL. Further, the AUC(0-t) in series [6] (single oral dose 10 mg/kg) turned out to be 750 ng·h/mL; in series [6] (single oral dose 100 mg/kg), 10300 ng·h/mL. The Cmax (in general, the highest concentration seen after dosing) in series [6] (single oral dose 10 mg/kg) was 1200 ng/mL; in series [6] (single oral dose 100 mg/kg) it was 3800 ng/mL. Also, the Tmax in series [6] (single oral dose 10 mg/kg) and in series [6] (single oral dose 100 mg/kg) was 15 min in each case. Besides, in series [6] (single oral dose 10 mg/kg), the half-life was 289 min. In addition, the bioavailability in series [6] (oral 10 mg/kg vs IV 2 mg/kg) was found to be 16.5%; in series [6] (oral 100 mg/kg vs IV 2 mg/kg), 22.6%. The compound also registered a Ke in series [6] (single oral dose 10 mg/kg) of 0.14. The “ext AUC” value in series [6] (single oral dose 10 mg/kg) was 1.5%. For the same compound, the “antibacterial activity” value in series [4] is “completely inactive”. For the same compound, the IC50 (usually the concentration that gives 50% inhibition) at 24 h in series [8] was 10.2 µg/mL (≈ 29.2 µM).

As for `COc1cc(-c2csc(NC(=O)c3ccc([N+](=O)[O-])s3)n2)ccc1Cl` [compound 20, N-(4-(4-chloro-3-methoxyphenyl)thiazol-2-yl)-5-nitrothiophene-2-carboxamide], the MIC in series [1] is 0.3 µg/mL (≈ 0.758 µM); in series [7], 2 µg/mL (≈ 5.05 µM); in series [2] (BW25113, Table S11), 1.25 µg/mL (≈ 3.16 µM); in series [3], 0.6 µg/mL (≈ 1.52 µM); in series [4], above 40 µg/mL. This compound also registered an MIC Salmonella typhimurium in series [5] of 10 µg/mL (≈ 25.3 µM). In addition, in series [4], the “antibacterial activity” value was “completely inactive”. This compound also displayed an IC50 at 24 h in series [8] of 8.3 µg/mL (≈ 21 µM).

For the compound `O=C1CN(/N=C/c2ccc([N+](=O)[O-])o2)C(=O)N1` [nitrofurantoin, reference compound], the MIC was determined as 20 µg/mL (≈ 84 µM) in series [7]; 2.5 µg/mL (≈ 10.5 µM) in series [2] (BW25113, E. coli WT BW25113); 5 µg/mL (≈ 21 µM) in series [3]; 20 µg/mL in series [4]. In addition, the “fold elevation of MIC in the double knockout” value in series [4] (∆nfsA & ∆nfsB vs WT) is recorded as “about 8 fold”.
